Data from PMC7083880 (Nature Communications, 2020).

How the values were obtained:
[1] = system: endogenous TP53 gene with UGA nonsense mutation in Calu-6 cells; experiment: p53 protein western blot, Calu-6 cells; type: cell-based, human; conditions: 24 h
Experimental: After 24 h of treatment, proteins were extracted from the cells and the p53 protein was assessed by western blotting (Fig. 2a). After DMSO mock treatment, as anticipated, no p53 protein was detected, because of the presence of the PTC in p53 mRNA[33].
The three leftmost lanes show twofold serial dilutions of untreated HeLa cell extract. The molecular weight is indicated to the left of each gel. b Schematic representation of the construct used to measure the function of p53. The construct carries a cDNA encoding the firefly luciferase under a promoter having two p53-responsive elements (underlined). […] The level of p21 mRNA is related to the amount of functional p53 protein synthesized in the cell. The results presented in panels b and c are representative of at least two independent experiments., p-values (p) were calculated using Student’s t-test. Source data are provided as a Source Data file.
Proteins were extracted from 2 × 10^6 cells in lysis buffer containing 5% SDS, 50 mM Tris–HCl pH 7, 20 mM EDTA, and a protease inhibitor cocktail (HALT Protease Inhibitor Cocktail, Pierce-Biotechnology, Rockford, IL, USA). Lysates were subjected to 30 pulses of sonication (Branson Digital Sonifier/amplitude 20%) before a 5 min centrifugation at 8000×g.
The equivalent of 2.5 × 10^5 cells was subjected to 10% SDS–PAGE before transfer of the proteins to a nitrocellulose membrane. […] Antibodies were then detected with Super Signal West Femto Maximum Sensitivity Substrate (Pierce-Biotechnology, Rockford, IL, USA). Quantifications were performed with QuantityOne software (Biorad). […]

[2] = system: firefly luciferase construct with UGA PTC in HeLa cells; experiment: UGA readthrough luciferase assay with empty expression vector (E.v.) control; type: cell-based, human;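 for luciferase activity, average: DAP exposure for 24 h before luciferase measurement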;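 for luciferase activity, exp2: DAP exposure for 24 h before luciferase measurement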
Source text: Firefly luciferase from HEK293FT cells transfected with the Fluc-int-UGA construct was immunoprecipitated and digested with trypsin. The MS/MS spectrum of the peptide containing the PTC position and the sequence determination are shown. The upper red and blue sequences indicate the amino acids validated, respectively, by detection of Nter and Cter peptide fragments (b and y ion series). Peptide fragments y6 and y7 clearly identify tryptophan (W) at the PTC position. The black peaks correspond to non-attributed mass-to-charge ratio (m/z) values. […] Readthrough efficiency was determined by measuring luciferase activity in HeLa cells co-transfected with the firefly luciferase construct described in Fig. 1b and with increasing amounts of an expression vector for either FTSJ1 or CTU1 (0.5, 1, or 2 µg). The empty expression vector (E.v.) was used as control. […] The experiment was performed twice and the results of both experiments (Exp1 and Exp2) are shown. c Western blot analysis of FTSJ1 and CTU1. d 2′-O-methylation analysis of tRNA^Trp, tRNA^SER, and tRNA^GLN by RiboMethSeq. […] A molecular weight marker is indicated to the left of each gel. p-values (p) were calculated using Student’s t-test. Source data are provided as a Source Data file.
Among the enzymes modifying tRNAs liable to recognize a stop codon by extended wobbling, human FTSJ1 (TRM7 in yeast) exclusively modifies tRNAs involved in UGA readthrough. In addition to other tRNA targets, FTSJ1 methylates the cytosine at position 34 of tRNA^Trp. Inhibition of this modification could increase the capacity of tRNA^Trp to misdecode and recognize the UGA stop codon. […] FTSJ1 and CTU1 overexpression were assessed by western-blot analysis (Fig. 5c).

## Nc1nc(N)c2[nH]cnc2n1 [DAP, 2,6-diaminopurine]
[1]; Calu-6 (UGA)
  Synthesis of p53 protein (western blot): dose-dependent synthesis of the p53 protein
[1]; Calu-6, western blot
  Lowest concentration at which p53 protein was detected: 1.56 µM
[2]; 0.39µM
  luciferase activity, average: 1690.75
  luciferase activity, exp1: 838
  luciferase activity, exp1*1,5: 1257
  luciferase activity, exp2: 2124.5
[2]; 0.78µM
  luciferase activity, average: 2398.5
  luciferase activity, exp1: 1130
  luciferase activity, exp1*1,5: 1695
  luciferase activity, exp2: 3102
[2]; 1.56µM
  luciferase activity, average: 4502.75
  luciferase activity, exp1: 2583
  luciferase activity, exp1*1,5: 3874.5
  luciferase activity, exp2: 5131
[2]; 6.25µM
  luciferase activity, average: 33564.1
  luciferase activity, exp1: 10235.5
  luciferase activity, exp1*1,5: 15353.2
  luciferase activity, exp2: 51775
[2]; 25µM
  luciferase activity, average: 96238.8
  luciferase activity, exp1: 36932
  luciferase activity, exp1*1,5: 55398
  luciferase activity, exp2: 137080
[2]; 100µM
  luciferase activity, average: 228679
  luciferase activity, exp1: 118458
  luciferase activity, exp1*1,5: 177688
  luciferase activity, exp2: 279670
[2]; 300µM
  luciferase activity, average: 215676
  luciferase activity, exp1: 106186
  luciferase activity, exp1*1,5: 159278
  luciferase activity, exp2: 272074
[2]; 600µM
  luciferase activity, average: 184925
  luciferase activity, exp1: 75195.5
  luciferase activity, exp1*1,5: 112793
  luciferase activity, exp2: 257056

## CN[C@@H]1[C@@H](O)[C@@H](O[C@@H]2[C@@H](O)[C@H](O[C@H]3O[C@H]([C@@H](C)O)[C@@H](O)[C@H](O)[C@H]3N)[C@@H](N)C[C@H]2N)OC[C@]1(C)O [G418, reference compound]
[1]; 25 µM, Calu-6
  p53 protein detection (western blot): barely detected
[2]; 25µM
  luciferase activity, average: 5230.12
  luciferase activity, exp1: 3250.5
  luciferase activity, exp1*1,5: 4875.75
  luciferase activity, exp2: 5584.5
[2]; 600µM
  luciferase activity, average: 9792.88
  luciferase activity, exp1: 6265.5
  luciferase activity, exp1*1,5: 9398.25
  luciferase activity, exp2: 10187.5
